Source: patent publication US11377444B2, “Pyridopyrimidine compounds acting as mTORC 1/2 dual inhibitors” (MEDSHINE DISCOVERY INC., priority 2017, dated 2022)
Where “and” joins values, the source holds several entries; their conditions need not be identical. Equal entries are not always repeated. Where two headings read alike, the source gives them in different places. Blank lines part the entries; values can stand above or below the compound they belong to.

Experiments:
[1] = Pharmacokinetic evaluation in plasma after IV and PO administration; type: in vivo; details: female Balb/c mice; for AUC(0-inf) / AUC(0-t) / C0 / clearance / half-life / MRT inf / MRT last / Vd / Cmax / Tmax / bioavailability: mouse; for MRT inf: read-out: MRT0-inf; for MRT last: read-out: MRT0-last; for Vd: read-out: Vdss
Experimental: Experimental Embodiment 3: Pharmacokinetic Evaluation
The test compound was mixed with […] (Cremophor EL), vortexed and sonicated to prepare a 1 mg/mL near-clear solution, which was filtered with a microporous filter membrane for future use. Female Balb/c mice of 18 to 20 grams were selected and the solution of the test compound was administered intravenously at a dose of 1 or 2 mg/kg. The test compound was mixed with an aqueous solution of 1% Tween 80, 9% polyethylene glycol 400, and 90% water, vortexed and sonicated to prepare 1 mg/mL near-clear solution, which was filtered with a microporous filter membrane for future use.
Female Balb/c mice of 18 to 20 grams were selected, and the solution of the test compound was orally administered at a dose of 2 or 10 mg/kg. The whole blood was collected at a certain time, and prepared into plasma. The drug concentration was analyzed by LC-MS/MS, and the pharmacokinetic parameters were calculated using Phoenix WinNonlin software (Pharsight Corporation, USA).

[2] = tested on: human breast cancer MCF-7 cell subcutaneous xenograft tumor; test: In vivo pharmacodynamic study, MCF-7 subcutaneous xenograft tumor; design: species or system BALB/c nude mouse; details: for Tumor volume (27th day): mean ± SEM; for Tumor volume (day 0): day 0, mean ± SEM
Description: Experimental Embodiment 4: In Vivo Pharmacodynamic Study on BALB/c Nude Mouse Model of Human Breast Cancer MCF-7 Cell Subcutaneous Xenograft Tumor
Experimental objective: To study the efficacy of the test compounds on human breast cancer MCF-7 cell subcutaneous xenograft tumor in BALB/c nude mouse model.
Experimental animals: Female BALB/c nude mice, 6-8 weeks old, weighing 18-22 grams; supplier: Shanghai Xipuer-Bikai Experimental Animal Co., Ltd.
Human breast cancer MCF-7 cells (ECACC, article number: 86012803) were subjected to in vitro monolayer culture under the conditions of EMEM (EBSS)+2 mM […]+1% Non Essential Amino Acids (NEAA) medium containing 10% fetal bovine serum, 100 U/mL penicillin and 100 μg/mL streptomycin, and 37° C., 5% CO2incubator. Conventional digestion treatment was carried out with trypsin-EDTA twice a week for cell passage. When the cell saturation was 80%-90%, and the quantity reached the requirement, the cells were collected, counted and inoculated.
Estrogen tablets (0.18 mg) were inoculated into the left back of each mouse three days before cell inoculation, 0.2 mL (1×10^7) MCF-7 cells (added with matrigel, volume ratio of 1:1) were subcutaneously inoculated into the right back of each mouse. When the average volume of tumor reached 142 mm^3, the mice were divided into groups and began to be administrated.
The test compounds were prepared into clear solutions of 0.75 mg/mL, 1.5 mg/mL and 3 mg/mL. The vehicles were 5% DMSO+30% polyethylene glycol 300+65% water.
The experimental indexes were used for investigating whether the growth of the tumors had been inhibited, delayed or cured. The diameters of the tumors were measured with vernier calipers twice a week. The calculation formula of the tumor volume was: V=0.5a×b^2, wherein a and b represent the long and short diameters of the tumor respectively.
The antitumor efficacy of the compound was evaluated by TGI (%) or relative tumor proliferation rate T/C (%). TGI (%) reflects the inhibition rate of the tumor growth. Calculation of TGI (%): TGI (%)=[1−(average tumor volume at the end of administration in the treatment group−average tumor volume at the beginning of administration in the treatment group)/(average tumor volume at the end of treatment in the vehicle control group−average tumor volume at the beginning of treatment in the vehicle control group)]×[…].
Relative tumor proliferation rate T/C (%): The calculation formula was as follows: T/C %=TRTV/CRTV at the beginning of the treatment (TRTV: treatment group RTV; CRTV: negative control group RTV). The relative tumor volume (RTV) was calculated according to the results of tumor measurement. The calculation formula was RTV=Vt/V0, wherein V0 is the average tumor volume measured during administration of the groups (i.e. d0), and Vt is the average tumor volume during a certain measurement, the TRTV and CRTV were taken on the same day.
Statistical analysis included the mean and standard error (SEM) of tumor volume at each time point in each group. […] The comparison between two groups was analyzed by T-test, and the comparison between three or more groups was analyzed by one-way ANOVA.

Tlast ([1]; IV 1 mg/kg): 8.00 h
AUCExtra ([1]; IV 2 mg/kg): 0.384%
AUMCExtra ([1]; IV 2 mg/kg): 2.95%
Tlast ([1]; IV 2 mg/kg): 8.00 h
AUCExtra ([1]; PO 2 mg/kg): 0.0496%
AUMCExtra ([1]; PO 2 mg/kg): 0.347%
Tlast ([1]; PO 2 mg/kg): 12.0 h
AUCExtra ([1]; PO 10 mg/kg): 0.156%
AUMCExtra ([1]; PO 10 mg/kg): 1.82%
Tlast ([1]; PO 10 mg/kg): 24.0 h
AUC(0-inf) ([1]; IV 1 mg/kg): 4.28 µM·h
AUC(0-t) ([1]; IV 1 mg/kg): 4.27 µM·h
C0 ([1]; IV 1 mg/kg): 4.79 µM
clearance ([1]; IV 1 mg/kg): 8.41 mL/min/kg
half-life ([1]; IV 1 mg/kg): 0.967 h
MRT inf ([1]; IV 1 mg/kg): 1.88 h
MRT last ([1]; IV 1 mg/kg): 0.268 h
Vd ([1]; IV 1 mg/kg): 0.677 L/kg
AUC(0-inf) ([1]; IV 2 mg/kg): 8.91 µM·h
AUC(0-t) ([1]; IV 2 mg/kg): 8.88 µM·h
C0 ([1]; IV 2 mg/kg): 8.07 µM
clearance ([1]; IV 2 mg/kg): 8.08 mL/min/kg
half-life ([1]; IV 2 mg/kg): 1.05 h
MRT inf ([1]; IV 2 mg/kg): 1.24 h
MRT last ([1]; IV 2 mg/kg): 1.2 h
Vd ([1]; IV 2 mg/kg): 0.599 L/kg
AUC(0-inf) ([1]; PO 2 mg/kg): 7.24 µM·h
AUC(0-t) ([1]; PO 2 mg/kg): 8.24 µM·h
Cmax ([1]; PO 2 mg/kg): 4.37 µM
Tmax ([1]; PO 2 mg/kg): 0.5 h
bioavailability ([1]; PO 2 mg/kg): 96.2%
half-life ([1]; PO 2 mg/kg): 1.14 h
MRT inf ([1]; PO 2 mg/kg): 1.95 h
MRT last ([1]; PO 2 mg/kg): 1.95 h
AUC(0-inf) ([1]; PO 10 mg/kg): 41.5 µM·h
AUC(0-t) ([1]; PO 10 mg/kg): 41.4 µM·h
Cmax ([1]; PO 10 mg/kg): 17 µM
Tmax ([1]; PO 10 mg/kg): 0.25 h
bioavailability ([1]; PO 10 mg/kg): 93.1%
half-life ([1]; PO 10 mg/kg): 3.46 h
MRT inf ([1]; PO 10 mg/kg): 2.5 h
MRT last ([1]; PO 10 mg/kg): 2.45 h
SMILES: CNC(=O)c1cccc(-c2ccc3c(N4CCOC[C@@H]4C)nc(N4CCOC[C@@H]4C)nc3n2)c1 [AZD2014, reference compound]
T/C ([2]; 7.5 mg/kg): 53.95%
TGI ([2]; 7.5 mg/kg): 61.10%
RTV (27th day) ([2]; 7.5 mg/kg): 2.25 ± 0.47
Tumor volume (27th day) ([2]; 7.5 mg/kg): 315 ± 65 mm^3
Tumor volume (day 0) ([2]; 7.5 mg/kg): 142 ± 9 mm^3
T/C ([2]; 15 mg/kg): 20.36%
TGI ([2]; 15 mg/kg): 104% and 104.37%
difference compared with the vehicle control group ([2]; 15 mg/kg): significant difference
RTV (27th day) ([2]; 15 mg/kg): 0.85 ± 0.26
Tumor volume (27th day) ([2]; 15 mg/kg): 121 ± 41 mm^3
Tumor volume (day 0) ([2]; 15 mg/kg): 141 ± 8 mm^3

AUCExtra ([1]; IV 2 mg/kg): 0.0592%
AUMCExtra ([1]; IV 2 mg/kg): 0.616%
Tlast ([1]; IV 2 mg/kg): 12.0 h
AUCExtra ([1]; PO 10 mg/kg): 0.414%
AUMCExtra ([1]; PO 10 mg/kg): 4.62%
Tlast ([1]; PO 10 mg/kg): 24.0 h
AUC(0-inf) ([1]; IV 2 mg/kg): 13.4 µM·h
AUC(0-t) ([1]; IV 2 mg/kg): 13.4 µM·h
C0 ([1]; IV 2 mg/kg): 12.2 µM
clearance ([1]; IV 2 mg/kg): 5.08 mL/min/kg
half-life ([1]; IV 2 mg/kg): 1.47 h
MRT inf ([1]; IV 2 mg/kg): 1.36 h
MRT last ([1]; IV 2 mg/kg): 1.35 h
Vd ([1]; IV 2 mg/kg): 0.414 L/kg
AUC(0-inf) ([1]; PO 10 mg/kg): 60.3 µM·h
AUC(0-t) ([1]; PO 10 mg/kg): 60.1 µM·h
Cmax ([1]; PO 10 mg/kg): 27.9 µM
Tmax ([1]; PO 10 mg/kg): 0.25 h
bioavailability ([1]; PO 10 mg/kg): 89.9%
half-life ([1]; PO 10 mg/kg): 2.61 h
MRT inf ([1]; PO 10 mg/kg): 2.49 h
MRT last ([1]; PO 10 mg/kg): 2.39 h
SMILES: CNC(=O)c1cccc(-c2ccc3c(N4CCOC[C@@H]4C)nc(N4CCOC5(CCC5)C4)nc3n2)c1 [Embodiment 23]
T/C ([2]; 7.5 mg/kg): 83.52%
TGI ([2]; 7.5 mg/kg): 22.14%
RTV (27th day) ([2]; 7.5 mg/kg): 3.48 ± 0.37
Tumor volume (27th day) ([2]; 7.5 mg/kg): 489 ± 51 mm^3
Tumor volume (day 0) ([2]; 7.5 mg/kg): 142 ± 9 mm^3
T/C ([2]; 15 mg/kg): 54.13%
TGI ([2]; 15 mg/kg): 59.05%
RTV (27th day) ([2]; 15 mg/kg): 2.26 ± 0.48
Tumor volume (27th day) ([2]; 15 mg/kg): 324 ± 79 mm^3
Tumor volume (day 0) ([2]; 15 mg/kg): 141 ± 9 mm^3
T/C ([2]; 30 mg/kg): 25.50%
TGI ([2]; 30 mg/kg): 98.33%
difference compared with the vehicle control group ([2]; 30 mg/kg): significant difference
RTV (27th day) ([2]; 30 mg/kg): 1.06 ± 0.17
Tumor volume (27th day) ([2]; 30 mg/kg): 150 ± 26 mm^3
Tumor volume (day 0) ([2]; 30 mg/kg): 141 ± 8 mm^3
TGI ([2]; 30 mg/kg, listed as embodiment 23): 98%

AUCExtra ([1]; IV 2 mg/kg): 0.0469%
AUMCExtra ([1]; IV 2 mg/kg): 0.400%
Tlast ([1]; IV 2 mg/kg): 12.0 h
AUCExtra ([1]; PO 10 mg/kg): 0.225%
AUMCExtra ([1]; PO 10 mg/kg): 1.02%
Tlast ([1]; PO 10 mg/kg): 12.0 h
AUC(0-inf) ([1]; IV 2 mg/kg): 9.37 µM·h
AUC(0-t) ([1]; IV 2 mg/kg): 9.73 µM·h
C0 ([1]; IV 2 mg/kg): 8.24 µM
clearance ([1]; IV 2 mg/kg): 7.72 mL/min/kg
half-life ([1]; IV 2 mg/kg): 1.1 h
MRT inf ([1]; IV 2 mg/kg): 1.6 h
MRT last ([1]; IV 2 mg/kg): 1.59 h
Vd ([1]; IV 2 mg/kg): 0.739 L/kg
AUC(0-inf) ([1]; PO 10 mg/kg): 42 µM·h
AUC(0-t) ([1]; PO 10 mg/kg): 41.9 µM·h
Cmax ([1]; PO 10 mg/kg): 12.8 µM
Tmax ([1]; PO 10 mg/kg): 0.25 h
bioavailability ([1]; PO 10 mg/kg): 89.5%
half-life ([1]; PO 10 mg/kg): 1.22 h
MRT inf ([1]; PO 10 mg/kg): 3.04 h
MRT last ([1]; PO 10 mg/kg): 3.02 h
SMILES: C[C@H]1COCCN1c1nc(N2CCOC3(CC3)C2)nc2nc(-c3cccc(C(N)=O)c3)ccc12 [Embodiment 51]
T/C ([2]; 15 mg/kg): 57.84%
TGI ([2]; 15 mg/kg): 59.27%
RTV (27th day) ([2]; 15 mg/kg): 2.41 ± 0.36
Tumor volume (27th day) ([2]; 15 mg/kg): 323 ± 25 mm^3
Tumor volume (day 0) ([2]; 15 mg/kg): 142 ± 11 mm^3
